Laboratory results: PubChem BioAssay (NCI)
Where “and” joins values, the source holds several entries; their conditions need not be identical. Equal entries are not always repeated.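 Five concentrations, 48 hours, 96-well plates. Abbreviation: GI50, concentration required for 50% inhibition of growth. The concentration for full growth arrest is given as TGI.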

Tests used:
Experiment in all cases: inhibition of tumour cell growth, NCI panel, 48 h
HOP-92 NSCLC = test system: HOP-92 NSCLC
OVCAR-4 ovarian = test system: OVCAR-4 ovarian
U251 CNS = test system: U251 CNS
MOLT-4 leukemia = test system: MOLT-4 leukemia
BT-549 breast = test system: BT-549 breast
HCT-15 colon = test system: HCT-15 colon
SF-268 CNS = test system: SF-268 CNS
HL-60(TB) leukemia = test system: HL-60(TB) leukemia
MDA-MB-435 = test system: MDA-MB-435
SW-620 colon = test system: SW-620 colon

| SMILES | GI50 (HOP-92 NSCLC) | TGI (HOP-92 NSCLC) | GI50 (OVCAR-4 ovarian) | TGI (OVCAR-4 ovarian) | GI50 (U251 CNS) | TGI (U251 CNS) | GI50 (MOLT-4 leukemia) | TGI (MOLT-4 leukemia) | GI50 (BT-549 breast) | TGI (BT-549 breast) | GI50 (HCT-15 colon) | TGI (HCT-15 colon) | GI50 (SF-268 CNS) | TGI (SF-268 CNS) | GI50 (HL-60(TB) leukemia) | TGI (HL-60(TB) leukemia) | GI50 (MDA-MB-435) | TGI (MDA-MB-435) | GI50 (SW-620 colon) | TGI (SW-620 colon) |
| --- | --- | --- | --- | --- | --- | --- | --- | --- | --- | --- | --- | --- | --- | --- | --- | --- | --- | --- | --- | --- |
| O=C1C=C[C@H](O)[C@@]2(CO)O[C@@H]12 | 4.77 µM | 14.6 µM | 13 µM | 29.4 µM | 9.26 µM | 23.2 µM | 2.99 µM | 16.5 µM | 12.4 µM | 25.5 µM | 14.3 µM | 30.5 µM | 15.3 µM | 29 µM | 2.65 µM | 8.3 µM | 9.92 µM | > 51.5 µM | 2.23 µM | 5.33 µM |
| COC1N(C2CC(O)C(CO)O2)C(=O)NC(=O)C1(F)Br (configuration not stated) | 13.2 µM | 43.8 µM and > 100 µM | > 59.1 µM | > 100 µM |  | 50 µM and > 100 µM | 13.3 µM | 15.8 µM and > 100 µM |  | > 100 µM | 26.3 µM | 50 µM and > 100 µM | 18.2 µM | 50 µM and > 100 µM | 13.8 µM | > 67 µM |  | > 100 µM | 27.7 µM | 50 µM and > 100 µM |
| Cc1ccc(O)cc1Nc1ccnc2ccc(S(C)(=O)=O)cc12 | 0.0327 µM | 0.245 µM | > 25 µM | > 25 µM | 5.22 µM | > 25 µM | > 19.8 µM | > 25 µM | 5.06 µM | 17.8 µM | 11.4 µM | > 25 µM | 2.67 µM | > 25 µM | 10.2 µM | > 25 µM | 4.92 µM | > 25 µM | 15.2 µM | > 25 µM |
| CCn1cc(C(=O)O)c(=O)c2cc(F)c(N3CCN(S(=O)(=O)c4cccc5ccccc45)CC3)cc21 | 1.25 µM | 5.43 µM | 2.6 µM | > 100 µM | 3.29 µM | > 100 µM | 4.46 µM | > 100 µM | 3.69 µM | > 100 µM | 3.15 µM | > 100 µM | 4.39 µM | > 100 µM | 2.58 µM | 6.41 µM | 3.13 µM | 14.5 µM | 3.57 µM | > 100 µM |
| COc1ccc2c(c1)c(-c1nc(-c3c[nH]c4ncccc34)cs1)cn2CCCN1CCOCC1 | 2.42 µM | 6.82 µM | 2.14 µM | 8.27 µM | 2.25 µM | 5.09 µM | 1.85 µM | 4.4 µM | 2 µM | 5.87 µM | 2.32 µM | 7.7 µM | 2.69 µM | 10.3 µM | 2.11 µM | 4.36 µM | 1.75 µM | 3.37 µM | 2.26 µM | 5.24 µM |
| CCNc1nc(O)c(/C=C2\C=Nc3ncccc32)s1 | 1.08 µM | > 100 µM | 3.08 µM | > 100 µM | 2.6 µM | 8.24 µM | 3.21 µM | 12.6 µM | 1.66 µM | 5.17 µM | 5.18 µM | > 100 µM | 2.3 µM | 7.85 µM | 2.53 µM | 10.2 µM | 3.49 µM | 14.9 µM | 3.42 µM | 27.1 µM |
